Assay results from patent US20180057507A1, “INHIBITORS OF DUAL LEUCINE ZIPPER (DLK) KINASE FOR THE TREATMENT OF DISEASE” (Board of Regents, The University of Texas System, priority 2016, published 2018).

Biological target: T1, human DLK (Homo sapiens, UniProt Q12852)
T1 sequence (Q12852 1-859): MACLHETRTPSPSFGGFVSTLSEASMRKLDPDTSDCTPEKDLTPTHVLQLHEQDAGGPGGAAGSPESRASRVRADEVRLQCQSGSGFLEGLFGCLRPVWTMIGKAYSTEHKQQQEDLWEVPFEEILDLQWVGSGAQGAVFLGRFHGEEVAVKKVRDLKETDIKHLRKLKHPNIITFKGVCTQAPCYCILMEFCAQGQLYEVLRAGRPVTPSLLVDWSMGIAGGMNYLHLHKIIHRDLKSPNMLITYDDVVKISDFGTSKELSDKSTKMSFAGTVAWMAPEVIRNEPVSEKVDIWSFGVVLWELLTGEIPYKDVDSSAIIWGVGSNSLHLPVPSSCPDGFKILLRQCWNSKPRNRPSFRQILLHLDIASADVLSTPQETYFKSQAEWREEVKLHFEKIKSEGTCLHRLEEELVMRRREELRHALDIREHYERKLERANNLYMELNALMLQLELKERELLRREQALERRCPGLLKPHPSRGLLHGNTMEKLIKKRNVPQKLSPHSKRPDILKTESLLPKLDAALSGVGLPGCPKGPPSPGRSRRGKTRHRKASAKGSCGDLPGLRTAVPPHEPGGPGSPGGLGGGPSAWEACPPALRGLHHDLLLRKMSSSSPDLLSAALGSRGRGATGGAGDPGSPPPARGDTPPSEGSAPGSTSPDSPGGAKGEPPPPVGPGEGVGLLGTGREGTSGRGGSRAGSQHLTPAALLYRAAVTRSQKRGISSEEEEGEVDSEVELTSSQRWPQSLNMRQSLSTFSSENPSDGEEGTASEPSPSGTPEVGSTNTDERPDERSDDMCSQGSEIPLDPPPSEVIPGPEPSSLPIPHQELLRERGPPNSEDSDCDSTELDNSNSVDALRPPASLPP
Assay: DLK Kd Determinations (KINOMEscan KdELECT, DiscoveRx)
Design: full length of human DLK (amino acids 1-859); host or cells: transiently transfected HEK293 cells; unpurified extract
Conditions: fusion protein of full length human DLK (amino acids 1-859) and NFkB DNA binding domain; qPCR readout; duplicate
Procedure, shortened: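 Competition binding of full-length human DLK (aa 1-859)-NFkB DBD fusion, DNA-tagged, from HEK293 extracts against an immobilized ligand; 1 h at room temperature, 0.9% DMSO. Bead-bound kinase was quantified by qPCR. Kd came from an 11-point 3-fold series (top 30,000 nM), in duplicate, with Hill slope fixed at −1.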

`COCCN1C[C@@H]2[C@H](C1)[C@H]2n1cc(-c2cnc(N)c(OC(F)F)c2)nc1C1CC1` [Example 107, 5-(2-cyclopropyl-1-((1R,5S,6s)-3-(2-methoxyethyl)-3-azabicyclo[3.1.0]hexan-6-yl)-1H-imidazol-4-yl)-3-(difluoromethoxy)pyridin-2-amine] and `Nc1ncc(-c2cn([C@H]3[C@@H]4CN(CCF)C[C@@H]43)c(C3CC3)n2)cc1OC(F)F` [Example 106, 5-(2-cyclopropyl-1-((1R,5S,6s)-3-(2-fluoroethyl)-3-azabicyclo[3.1.0]hexan-6-yl)-1H-imidazol-4-yl)-3-(difluoromethoxy)pyridin-2-amine] are within 1.5-fold of each other in Kd: 74 nM for the first, 55 nM for the second.

Compared with `Nc1ncc(-c2cn([C@H]3[C@@H]4CN(CCF)C[C@@H]43)c(CC(F)(F)F)n2)cc1C(F)(F)F` [Example 123, 5-(1-((1R,5S,6s)-3-(2-fluoroethyl)-3-azabicyclo[3.1.0]hexan-6-yl)-2-(2,2,2-trifluoroethyl)-1H-imidazol-4-yl)-3-(trifluoromethyl)pyridin-2-amine], `Nc1ncc(-c2cn([C@H]3[C@@H]4CN(CC(F)F)C[C@@H]43)c(CC(F)(F)F)n2)cc1C(F)(F)F` [Example 122, 5-(1-((1R,5S,6s)-3-(2,2-difluoroethyl)-3-azabicyclo[3.1.0]hexan-6-yl)-2-(2,2,2-trifluoroethyl)-1H-imidazol-4-yl)-3-(trifluoromethyl)pyridin-2-amine] is 1.8-fold higher in Kd: 65 nM for the first, 120 nM for the second. The first binds more tightly here.

`CC(=O)N1C[C@@H]2[C@H](C1)[C@H]2n1cc(-c2cnc(N)c(C(F)(F)F)c2)nc1CC(F)(F)F` [Example 82, 1-((1R,5S,6s)-6-(4-(6-amino-5-(trifluoromethyl)pyridin-3-yl)-2-(2,2,2-trifluoroethyl)-1H-imidazol-1-yl)-3-azabicyclo[3.1.0]hexan-3-yl)ethan-1-one] and `Nc1ncc(-c2cn([C@H]3[C@@H]4CN(C5COC5)C[C@@H]43)c(CC(F)(F)F)n2)cc1C(F)(F)F` [Example 52, 5-(1-((1R,5S,6s)-3-(oxetan-3-yl)-3-azabicyclo[3.1.0]hexan-6-yl)-2-(2,2,2-trifluoroethyl)-1H-imidazol-4-yl)-3-(trifluoromethyl)pyridin-2-amine] are within 1.5-fold of each other in Kd: 97 nM for the first, 100 nM for the second.

Compared with `CC(C)c1nc(-c2cnc(N)c(OC(F)F)c2)cn1[C@H]1[C@@H]2CN(CC(F)F)C[C@@H]21` [Example 112, 5-(1-((1R,5S,6s)-3-(2,2-difluoroethyl)-3-azabicyclo[3.1.0]hexan-6-yl)-2-isopropyl-1H-imidazol-4-yl)-3-(difluoromethoxy)pyridin-2-amine], `CC(C)c1nc(-c2cnc(N)c(OC(F)(F)F)c2)cn1[C@H]1[C@@H]2CN(CC(F)F)C[C@@H]21` [Example 109, 5-(1-((1R,5S,6s)-3-(2,2-difluoroethyl)-3-azabicyclo[3.1.0]hexan-6-yl)-2-isopropyl-1H-imidazol-4-yl)-3-(trifluoromethoxy)pyridin-2-amine] is 2.4-fold lower in Kd: 160 nM for the first, 66 nM for the second.

Compared with `Nc1ncc(-c2cn([C@H]3[C@@H]4CN(CC(F)(F)F)C[C@@H]43)c(C3CC3)n2)cc1C(F)(F)F` [Example 93, 5-(2-cyclopropyl-1-((1R,5S,6s)-3-(2,2,2-trifluoroethyl)-3-azabicyclo[3.1.0]hexan-6-yl)-1H-imidazol-4-yl)-3-(trifluoromethyl)pyridin-2-amine], `Nc1ncc(-c2cn([C@H]3[C@@H]4CN(CC(F)(F)F)C[C@@H]43)c(CC3CC3)n2)cc1C(F)(F)F` [Example 79, 5-(2-(cyclopropylmethyl)-1-((1R,5S,6s)-3-(2,2,2-trifluoroethyl)-3-azabicyclo[3.1.0]hexan-6-yl)-1H-imidazol-4-yl)-3-(trifluoromethyl)pyridin-2-amine] is 1.5-fold lower in Kd: 270 nM for the first, 180 nM for the second. The second binds more tightly here.

`COCCN1C[C@@H]2[C@H](C1)[C@H]2n1cc(-c2cnc(N)c(OC(F)F)c2)nc1C(C)C` [Example 55, 3-(difluoromethoxy)-5-(2-isopropyl-1-((1R,5S,6s)-3-(2-methoxyethyl)-3-azabicyclo[3.1.0]hexan-6-yl)-1H-imidazol-4-yl)pyridin-2-amine] and `COCCN1C[C@@H]2[C@H](C1)[C@H]2n1cc(-c2cnc(N)c(C(F)(F)F)c2)nc1C(C)C` [Example 15, 5-(2-isopropyl-1-((1R,5S,6s)-3-(2-methoxyethyl)-3-azabicyclo[3.1.0]hexan-6-yl)-1H-imidazol-4-yl)-3-(trifluoromethyl)pyridin-2-amine] are within 1.5-fold of each other in Kd: 240 nM for the first, 210 nM for the second.

Compared with `Nc1ncc(-c2cn([C@H]3[C@@H]4CN(CC(F)(F)F)C[C@@H]43)c(CC3CC3)n2)cc1OC(F)(F)F` [Example 99, 5-(2-(cyclopropylmethyl)-1-((1R,5S,6s)-3-(2,2,2-trifluoroethyl)-3-azabicyclo[3.1.0]hexan-6-yl)-1H-imidazol-4-yl)-3-(trifluoromethoxy)pyridin-2-amine], `CC(C)c1nc(-c2cnc(N)c(C(F)(F)F)c2)cn1[C@H]1[C@@H]2CN(CC(F)(F)F)C[C@@H]21` [Example 18, 5-(2-isopropyl-1-((1R,5S,6s)-3-(2,2,2-trifluoroethyl)-3-azabicyclo[3.1.0]hexan-6-yl)-1H-imidazol-4-yl)-3-(trifluoromethyl)pyridin-2-amine] is 2.1-fold higher in Kd: 340 nM for the first, 720 nM for the second. The first binds more tightly here.

First: CC(C)c1nc(-c2cnc(N)c(C(F)(F)F)c2)cn1[C@H]1C[C@@H](F)C1 [Example 24, 5-(1-((1s,3s)-3-fluorocyclobutyl)-2-isopropyl-1H-imidazol-4-yl)-3-(trifluoromethyl)pyridin-2-amine]
Second: CC(C)c1nc(-c2cnc(N)c(C(F)(F)F)c2)cn1C1CC(N2CCOCC2)C1 (stereo not drawn) [Example 37, 5-(2-isopropyl-1-(3-morpholinocyclobutyl)-1H-imidazol-4-yl)-3-(trifluoromethyl)pyridin-2-amine]
The Kd of the first is 2.6-fold higher: 240 nM for the first, 92 nM for the second. The second binds more tightly here.

`Nc1ncc(-c2cn([C@H]3[C@@H]4CN(C5COC5)C[C@@H]43)c(C3CCC3)n2)cc1OC(F)F` [Example 57, 5-(2-cyclobutyl-1-((1R,5S,6s)-3-(oxetan-3-yl)-3-azabicyclo[3.1.0]hexan-6-yl)-1H-imidazol-4-yl)-3-(difluoromethoxy)pyridin-2-amine] and `Nc1ncc(-c2cn([C@H]3[C@@H]4CN(C5COC5)C[C@@H]43)c(C3CCCC3)n2)cc1OC(F)(F)F` [Example 63, 5-(2-cyclopentyl-1-((1R,5S,6s)-3-(oxetan-3-yl)-3-azabicyclo[3.1.0]hexan-6-yl)-1H-imidazol-4-yl)-3-(trifluoromethoxy)pyridin-2-amine] are within 1.5-fold of each other in Kd: 180 nM for the first, 140 nM for the second.

Compared with `CC(C)c1nc(-c2cnc(N)c(C(F)(F)F)c2)cn1Cc1cccnc1` [Example 32, 5-(2-isopropyl-1-(pyridin-3-ylmethyl)-1H-imidazol-4-yl)-3-(trifluoromethyl)pyridin-2-amine], `CC(C)c1nc(-c2cnc(N)c(C(F)(F)F)c2)cn1CCC1CCOCC1` [Example 35, 5-(2-isopropyl-1-(2-(tetrahydro-2H-pyran-4-yl)ethyl)-1H-imidazol-4-yl)-3-(trifluoromethyl)pyridin-2-amine] is 5.9-fold lower in Kd: 940 nM for the first, 160 nM for the second. The second binds more tightly here.

Work on `CC(=O)N1C[C@@H]2[C@H](C1)[C@H]2n1cc(-c2cnc(N)c(OC(F)F)c2)nc1CC1CC1` [Example 115, 1-((1R,5S,6s)-6-(4-(6-amino-5-(difluoromethoxy)pyridin-3-yl)-2-(cyclopropylmethyl)-1H-imidazol-1-yl)-3-azabicyclo[3.1.0]hexan-3-yl)ethan-1-one] yielded a Kd of 200 nM.
